# Patent publication US20100292222A1, “CHEMICAL COMPOUNDS 751” (ASTRAZENECA AB, priority 2009, published 2010)
# Target: T1, Androgen Receptor (AR) (Homo sapiens, UniProt P10275, T878A)
# T1 construct: cell based immuno-fluorescence assay using the LNCaP prostate epithelial cell line; host or cells: LNCaP clone FGC prostate carcinoma cells
# T1 sequence (P10275 1-920 T878A): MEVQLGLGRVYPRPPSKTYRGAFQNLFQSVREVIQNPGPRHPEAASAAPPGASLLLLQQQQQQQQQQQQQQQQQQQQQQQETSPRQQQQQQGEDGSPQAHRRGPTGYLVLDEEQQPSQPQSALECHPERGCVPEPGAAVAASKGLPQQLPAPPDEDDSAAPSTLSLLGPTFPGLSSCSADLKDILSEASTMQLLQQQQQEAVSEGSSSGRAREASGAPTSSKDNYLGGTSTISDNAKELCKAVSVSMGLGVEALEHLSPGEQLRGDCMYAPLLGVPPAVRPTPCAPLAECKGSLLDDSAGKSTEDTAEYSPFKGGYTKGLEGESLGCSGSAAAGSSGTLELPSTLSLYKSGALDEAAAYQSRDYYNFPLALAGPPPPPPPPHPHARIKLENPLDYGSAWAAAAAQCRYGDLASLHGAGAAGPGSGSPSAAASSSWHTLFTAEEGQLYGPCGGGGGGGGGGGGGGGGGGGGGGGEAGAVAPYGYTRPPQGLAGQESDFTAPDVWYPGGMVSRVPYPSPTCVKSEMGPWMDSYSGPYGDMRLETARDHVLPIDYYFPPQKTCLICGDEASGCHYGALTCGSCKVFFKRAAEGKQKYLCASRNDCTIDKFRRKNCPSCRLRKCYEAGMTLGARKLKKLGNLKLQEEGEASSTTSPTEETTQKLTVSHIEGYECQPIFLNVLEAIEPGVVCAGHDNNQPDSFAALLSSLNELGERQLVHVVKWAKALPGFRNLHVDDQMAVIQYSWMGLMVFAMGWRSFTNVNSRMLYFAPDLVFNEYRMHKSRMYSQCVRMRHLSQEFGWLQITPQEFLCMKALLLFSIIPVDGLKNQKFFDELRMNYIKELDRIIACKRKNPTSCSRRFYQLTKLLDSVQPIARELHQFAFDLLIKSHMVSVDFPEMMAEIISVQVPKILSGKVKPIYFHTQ
# Experiment: LNCaP Androgen Receptor Down-Regulation Cell Assay
# Assay type: cell-based
# Settings: LNCaP prostate carcinoma cell line; 20-22 hours incubation; immunofluorescence; 50% reduction of the AR signal
# Method: The ability of compounds to reduce Androgen Receptor (AR) numbers was assessed in a cell based immuno-fluorescence assay using the LNCaP prostate epithelial cell line.
# This immunofluorescence end point assay measures the ability of a test compound to down-regulate and reduce measured levels of the AR in the LNCaP prostate carcinoma cell line (LNCaP clone FGC (CRL-1740) obtained from the American Type Culture Collection (ATCC)).
# LNCaP cells were cultured in Growth Medium (phenol red free Roswell Park Memorial Institute (RPMI) 1640 (Invitrogen Code no. 11835-063) containing 2 mM L-Glutamine (Invitrogen Code no. 25030-024) and 1% (v/v) Penicillin/Streptomycin (10000 units/ml Penicillin and 10000 μg/ml of Streptomycin utilising penicillin G (sodium salt) and streptomycin sulphate: prepared in normal saline, Invitrogen Code no. 15140122) and 10% (v/v) foetal bovine serum (FBS)) in a 5% CO2 air incubator at 37° C. Cells for assay were harvested from T175 stock flasks by washing once in PBS (phosphate buffered saline, pH 7.4) (Invitrogen Code no. 14190-094) and harvested using 5 mls of 1× Trypsin/ethylaminediaminetetraacetic acid (EDTA) (10× Trypsin-EDTA, 5.0 g/L Trypsin, 2.0 g/L of EDTA•4Na and 8.5 g/L of NaCl, without Phenol Red, Invitrogen Code no. 15400-054) diluted in PBS solution. A 5 ml volume of Growth Medium was added to each flask (as above except that 5% (v/v) charcoal stripped FBS (HyClone Code no. SH30068.03) was included instead of 10% (v/v) FBS). Cells were syringed at least twice using a sterile 18G×1.5″ (1.2×40 mm) broad gauge needle and cell density was measured using a haemocytometer. Cells were further diluted in Growth Medium plus 5% (v/v) charcoal stripped FBS and seeded at a density of 6.5×10^3 cells per well (in 90 ul) into transparent, black, tissue culture treated 96 well plates (Packard, No. 6005182).
# Test data reported herein was generated using two different compounds preparation and dosing methods. In method (1) a 10 mM compound stock solution in 100% (v/v) DMSO was serially diluted in 4-fold steps in 100% (v/v) DMSO using a Thermo Scientific Matrix SerialMate. The diluted compounds were then further diluted 1 in 30 in assay media using a Thermo Scientific Matrix PlateMate and a 10 μl aliquot of this dilution was dosed to cells manually using a multi-channel pipette. In method (2) starting with a 10 mM compound stock solution, the Labcyte Echo 550 was used to generate a compound concentration response set diluted in 30 μl of assay media. The Echo 550 is a liquid handler that uses acoustic technology to perform direct microplate-to-microplate transfers of DMSO compound solutions. The system can be programmed to transfer volumes as low as […] in multiple increments between microplates and in so doing generates a serial dilution of compound which is then back-filled to normalise the DMSO is concentration across the dilution range. A 10 μl volume of diluted compound is then dosed to cells using a Thermo Scientific Matrix PlateMate.
# Plates were incubated overnight at 37° C., 5% CO2. Wells were then dosed with compound prepared by one of the 2 methods above and further incubated for 20-22 hours at 37° C., 5% CO2. Plates were fixed by the addition of 20 μl of 10% (v/v) formaldehyde solution (in PBS) to each well (final formaldehyde conc.=1.67% (v/v)) and left at room temperature for 10 mins. This fixative solution was removed and cells were washed with 250 μl of PBS/0.05% (v/v) Tween 20 (PBST) using an automated plate washer. This process was then repeated twice more.
# Immunostaining was performed at room temperature. Cells were permeabilised by the addition of 35 μl of PBS containing 0.5% Tween 20 and incubated for 1 hour at room temperature. Permeabilisation solution was removed and cells were washed with 250 μl of PBST using an automated plate washer. This process was then repeated twice more. […]
row,Structure (SMILES),IC50 [µM]
1,"C[C@@H](O)C(=O)N1CCN(CCOc2ccc(C3CCN(c4ccc5nnc(C(F)(F)F)n5n4)CC3)cc2)CC1 [Example 24, (2R)-1-oxo-1-{4-[2-(4-{1-[3-(trifluoromethyl)[1,2,4]triazolo[4,3-b]pyridazin-6-yl]piperidin-4-yl}phenoxy)ethyl]piperazin-1-yl}propan-2-ol]",1.7
2,"COC[C@H](CN1CCN(C(C)=O)CC1)Oc1ccc(C2CCN(c3ccc4nnc(C(F)(F)F)n4n3)CC2)cc1 [Example 28, 6-(4-{4-[(1S)-2-(4-acetylpiperazin-1-yl)-1-(methoxymethyl)ethoxy]phenyl}piperidin-1-yl)-3-(trifluoromethyl)[1,2,4]triazolo[4,3-b]pyridazine]",0.4
3,"O=C1CN(CCOc2ccc(N3CCN(c4ccc5nnc(C(F)(F)F)n5n4)CC3)cc2)CCN1C1CC1 [Example 5, 1-cyclopropyl-4-[2-(4-{4-[3-(trifluoromethyl)[1,2,4]-triazolo[4,3-b]pyridazin-6-yl]piperazin-1-yl}phenoxy)ethyl]piperazin-2-one]",7.8
4,"CC(=O)N1CCCN(CCOc2ccc(C3(O)CCN(c4ccc5nnc(C(F)(F)F)n5n4)CC3)c(F)c2)CC1 [Example 41, 4-{4-[2-(4-acetyl-1,4-diazepan-1-yl)ethoxy]-2-fluorophenyl}-1-[3-(trifluoromethyl)[1,2,4]triazolo[4,3-b]pyridazin-6-yl]piperidin-4-ol]",0.036
5,"CC(=O)N1CCN(CCOc2ccc(C3(O)CCN(c4ccc5nnc(C(F)(F)F)n5n4)CC3)c(F)c2)CC1 [Example 35, 4-{4-[2-(4-acetylpiperazin-1-yl)ethoxy]-2-fluorophenyl}-1-[3-(trifluoromethyl)[1,2,4]-triazolo[4,3-b]pyridazin-6-yl]piperidin-4-ol]",0.14
6,"CN1CCN(CCCOc2ccc(C3(O)CCN(c4ccc5nnc(C(F)(F)F)n5n4)CC3)c(F)c2)CC1=O [Example 42, 4-[3-(3-fluoro-4-{4-hydroxy-1-[3-(trifluoromethyl)[1,2,4]triazolo[4,3-b]pyridazin-6-yl]piperidin-4-yl}phenoxy)propyl]-1-methylpiperazin-2-one]",0.17
7,"CN1CCN(CCOc2ccc(C3CCN(c4ccc5nnc(C(F)(F)F)n5n4)CC3)cc2)C(=O)C1 [Example 8, 4-methyl-1-[2-(4-{1-[3-(trifluoromethyl)[1,2,4]triazolo[4,3-b]pyridazin-6-yl]piperidin-4-yl}phenoxy)ethyl]piperazin-2-one]",1
8,"CN1CCN(CCOc2ccc(C3(O)CCN(c4ccc5nnc(C(F)(F)F)n5n4)CC3)cc2F)CC1=O [Example 12, 4-[2-(2-fluoro-4-{4-hydroxy-1-[3-(trifluoromethyl)[1,2,4]triazolo[4,3-b]pyridazin-6-yl]piperidin-4-yl}phenoxy)ethyl]-1-methylpiperazin-2-one]",0.67
9,"CO[C@@H](C)C(=O)N1CCN(CCOc2ccc(C3CCN(c4ccc5nnc(C(F)(F)F)n5n4)CC3)cc2)CC1 [Example 25, 6-{4-[4-(2-{4-[(2S)-2-methoxypropanoyl]piperazin-1-yl}ethoxy)phenyl]piperidin-1-yl}-3-(trifluoromethyl)[1,2,4]triazolo[4,3-b]pyridazine]",1.2
10,"CN1CCN(CCOc2ccc(N3CCN(c4ccc5nnc(C(F)(F)F)n5n4)CC3)cc2)C(=O)C1 [Example 7, 4-methyl-1-[2-(4-{4-[3-(trifluoromethyl)[1,2,4]-triazolo[4,3-b]pyridazin-6-yl]piperazin-1-yl}phenoxy)ethyl]piperazin-2-one]",6.5

# Second part, the compound after the results:
row,IC50 [µM],Structure (SMILES)
1,0.41,"O=C1CN(CCCOc2ccc(C3CCN(c4ccc5nnc(C(F)(F)F)n5n4)CC3)cc2)CCN1C1CC1 [Example 10, 1-cyclopropyl-4-[3-(4-{1-[3-(trifluoromethyl)[1,2,4]triazolo[4,3-b]pyridazin-6-yl]piperidin-4-yl}phenoxy)propyl]piperazin-2-one]"
2,1.8,"O=C(CO)N1CCN(CCOc2ccc(C3CCN(c4ccc5nnc(C(F)(F)F)n5n4)CC3)cc2)CC1 [Example 21, 2-oxo-2-{4-[2-(4-{1-[3-(trifluoromethyl)[1,2,4]triazolo[4,3-b]pyridazin-6-yl]piperidin-4-yl}phenoxy)ethyl]piperazin-1-yl]ethanol]"
3,0.31,"CCN1CCN(CCOc2ccc(C3CCN(c4ccc5nnc(C(F)(F)F)n5n4)CC3)cc2)CC1=O [Example 18, 1-ethyl-4-[2-(4-{1-[3-(trifluoromethyl)[1,2,4]triazolo[4,3-b]pyridazin-6-yl]piperidin-4-yl}phenoxy)ethyl]piperazin-2-one]"
4,1.5,"COCC(=O)N1CCN(CCOc2ccc(C3CCN(c4ccc5nnc(C(F)(F)F)n5n4)CC3)cc2)CC1 [Example 22, 6-[4-(4-{2-[4-(methoxyacetyl)piperazin-1-yl]ethoxy}phenyl)piperidin-1-yl]-3-(trifluoromethyl)[1,2,4]triazolo[4,3-b]pyridazine]"
5,0.24,"CCN1CCN(CCCOc2ccc(C3CCN(c4ccc5nnc(C(F)(F)F)n5n4)CC3)cc2)CC1=O [Example 15, 1-ethyl-4-[3-(4-{1-[3-(trifluoromethyl)[1,2,4]triazolo[4,3-b]pyridazin-6-yl]piperidin-4-yl}phenoxy)propyl]piperazin-2-one]"
6,0.39,"CCN1CCN(CCOc2ccc(C3(O)CCN(c4ccc5nnc(C(F)(F)F)n5n4)CC3)cc2)CC1=O [Example 37, 1-ethyl-4-[2-(4-{4-hydroxy-1-[3-(trifluoromethyl)[1,2,4]triazolo[4,3-b]pyridazin-6-yl]piperidin-4-yl}phenoxy)ethyl]piperazin-2-one]"
7,0.079,"CC(=O)N1CCN(CCOc2ccc(C3CCN(c4ccc5nnc(C(F)(F)F)n5n4)CC3)cc2)C[C@@H]1C [Example 33, 6-[4-(4-{2-[(3S)-4-acetyl-3-methylpiperazin-1-yl]ethoxy}phenyl)piperidin-1-yl]-3-(trifluoromethyl)[1,2,4]triazolo[4,3-b]pyridazine]"
8,0.71,"CC(C)N1CCN(CCOc2ccc(C3CCN(c4ccc5nnc(C(F)(F)F)n5n4)CC3)cc2)CC1=O [Example 19, 1-(1-methylethyl)-4-[2-(4-{1-[3-(trifluoromethyl)[1,2,4]triazolo[4,3-b]pyridazin-6-yl]piperidin-4-yl}phenoxy)ethyl]piperazin-2-one]"
